Experimental data: patent publication US12678477B2, “Antiviral peptoid compositions” (priority 2019, dated 2026)
Where “and” joins values, the source holds several entries; their conditions need not be identical. Equal entries are not always repeated.

How the values were obtained:
HSV = conditions: acyclovir treatment, given orally; cited from earlier work
[1] = system: SARS-CoV-2 Isolate USA-WA1/2020; test: SARS-CoV-2 plaque assay in Vero E6 cells (virus pre-incubated with peptoid); assay type: cell-based; conditions: for % control: plaque count relative to control; for Count (plaques): virus-peptoid incubated two hours at 37° C., Vero E6

Compound | reduction of transmission (HSV) | % control ([1]; 5 μg/ml) | Count (plaques) ([1]; 5 μg/ml) | % control ([1]; 10 μg/ml) | Count (plaques) ([1]; 10 μg/ml) | % control ([1]; 20 μg/ml) | Count (plaques) ([1]; 20 μg/ml) | % control ([1]; 40 μg/ml) | Count (plaques) ([1]; 40 μg/ml)
Nc1nc2c(ncn2COCCO)c(=O)[nH]1 [acyclovir] | 50% | – | – | – | – | – | – | – | –
H-(NLys-Nspe-Nspe)4-NH2 [MXB-001] | – | 118.18% and 113.64% | 52 and 50 | 100% and 118.18% | 44 and 52 | 125% | 55 | 104.55% | 46
H-((NLys-Nspe(p-Br)-Nspe(p-Br))2—NH2 [MXB-004] | – | 86.36% and 102.27% | 38 and 45 | 136.36% and 134.09% | 60 and 59 | 54.55% and 56.82% | 24 and 25 | 15.91% | 7
